# Measurements from patent US11839613B2, “Pyrimidine derivatives as PGE2 receptor modulators” (IDORSIA PHARMACEUTICALS LTD, priority 2017, dated 2023).
# Assays:
# EP2 = EP2 (Homo sapiens (Human), UniProt P43116); experiment: hEP2 cAMP assay (SF295 glioblastoma cells, HTRF cAMP); type: cell-based; details: antagonistic activity
# Outline: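 PGE2-driven cAMP accumulation was measured by HTRF in SF295 cells, which express endogenous EP2 only. Cells in assay buffer with 2 mM IBMX were pre-incubated 45 min at RT, then incubated 30 min at RT. Detection used competition between cellular cAMP and d2-cAMP for a cryptate anti-cAMP antibody.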
# EP4 = EP4 (Homo sapiens (Human), UniProt P35408); experiment: hEP4 cAMP assay (BT549 breast cancer cells, HTRF cAMP); type: cell-based; details: antagonistic activity, PGE2 6 nM
# Sequence of EP4 (P35408 whole entry): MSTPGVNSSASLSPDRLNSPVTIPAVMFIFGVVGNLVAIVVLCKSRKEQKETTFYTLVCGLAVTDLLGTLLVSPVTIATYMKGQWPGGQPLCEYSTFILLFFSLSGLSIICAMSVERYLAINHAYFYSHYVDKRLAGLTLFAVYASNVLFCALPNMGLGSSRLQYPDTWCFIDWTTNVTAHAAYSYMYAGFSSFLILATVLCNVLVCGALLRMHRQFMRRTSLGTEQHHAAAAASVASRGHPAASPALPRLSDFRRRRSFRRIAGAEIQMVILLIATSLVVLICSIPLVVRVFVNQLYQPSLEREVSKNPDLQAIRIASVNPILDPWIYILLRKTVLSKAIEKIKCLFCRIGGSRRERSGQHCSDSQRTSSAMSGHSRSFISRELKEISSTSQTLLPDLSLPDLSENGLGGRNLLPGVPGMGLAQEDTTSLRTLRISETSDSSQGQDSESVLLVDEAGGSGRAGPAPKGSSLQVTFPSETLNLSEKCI
# Outline: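 cAMP accumulation quantified by HTRF competition between cellular cAMP and d2-labeled cAMP for cryptate anti-cAMP antibody. Cells: endogenously EP4-expressing BT549, buffer with 2 mM IBMX; 45 min RT compound preincubation preceded 30 min RT challenge with PGE2 at 6 nM final.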
# PTGER2 (EP2) = PTGER2 (EP2) (Homo sapiens (Human), UniProt P43116); experiment: hEP2 b-arrestin assay (PathHunter HEK 293 PTGER2 b-arrestin cells); type: cell-based; details: antagonistic activity, beta-arrestin assay; read-out: hEP2 b-arr IC50
# Sequence of PTGER2 (EP2) (P43116 whole entry): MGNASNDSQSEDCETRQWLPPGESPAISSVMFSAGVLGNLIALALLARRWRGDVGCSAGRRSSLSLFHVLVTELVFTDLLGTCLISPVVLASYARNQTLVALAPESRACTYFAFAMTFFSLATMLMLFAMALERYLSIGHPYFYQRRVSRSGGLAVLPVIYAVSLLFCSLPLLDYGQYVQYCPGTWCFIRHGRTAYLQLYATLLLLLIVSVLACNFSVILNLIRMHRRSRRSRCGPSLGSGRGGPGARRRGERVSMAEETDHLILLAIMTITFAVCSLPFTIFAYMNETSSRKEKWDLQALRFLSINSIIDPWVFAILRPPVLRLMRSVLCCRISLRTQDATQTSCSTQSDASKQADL
# Method: Plate is pre-incubated 15 minutes at 37° C. Then five microliters of PGE2 (final conc. 5 μM) are transferred into the assay plate. Plate is incubated 120 minutes at 37° C.
# (each concentration is measured in duplicate)
# PTGER4 (EP4) = PTGER4 (EP4) (Homo sapiens (Human), UniProt P35408); experiment: cell-based
# Sequence of PTGER4 (EP4) (P35408 whole entry): as the sequence (P35408 whole entry) above
# Sequence of EP2 (P43116 whole entry): as the sequence (P43116 whole entry) above
IC50 (EP2),IC50 (EP4),IC50 (PTGER2 (EP2)),IC50 (PTGER4 (EP4)),IC50 (EP4; BT549 cells),Structure (SMILES)
108 nM,227 nM,57 nM,510 nM,–,O=C(O)c1ccc(-c2cc(NCCc3cc4ccoc4cc3F)ncn2)cc1OC1CCC1 [Ex 200]
29 nM,–,3 nM,30 nM,85 nM,"CCOc1cc2ccccc2c(C)c1CCNc1cc(-c2ccc(C(=O)O)c(SC)c2)ncn1 [Example 419, 4-{6-[2-(3-Ethoxy-1-methyl-naphthalen-2-yl)-ethylamino]-pyrimidin-4-yl}-2-methylsulfanyl-benzoic acid]"
7520 nM,513 nM,–,341 nM,–,"CSc1cc(-c2cc(NCCc3ccc4c(c3)OCCC4)ncn2)ccc1C(=O)O [Ex 285, 4-[6-(2-Chroman-7-yl-ethylamino)-pyrimidin-4-yl]-2-methylsulfanyl-benzoic acid]"
301 nM,185 nM,–,179 nM,–,CCOc1cc(-c2cc(NCCc3cc4c(cc3OC)OCCO4)ncn2)ccc1CC(=O)O [Ex 175]
320 nM,31 nM,–,3 nM,–,"CCOc1cc(-c2cc(NCCc3cc4c(cc3OC)CCCC4)ncn2)sc1C(=O)O [Ex 60, 3-Ethoxy-5-{6-[2-(3-methoxy-5,6,7,8-tetrahydro-naphthalen-2-yl)-ethylamino]-pyrimidin-4-yl}-thiophene-2-carboxylic acid]"
482 nM,109 nM,–,42 nM,–,CCOc1cc(-c2cc(NCCc3ccc4c(c3)c(C)cn4C)ncn2)sc1C(=O)O [Ex 133]
571 nM,141 nM,–,219 nM,–,O=C(O)c1ccc(-c2cc(NCCc3ccc4ccsc4c3)ncn2)cc1OC1CCC1 [Ex 147]
912 nM,12 nM,–,58 nM,–,"CCOc1cc(-c2cc(NCCc3cc4c(cc3OC)OCCCO4)ncn2)sc1C(=O)O [Ex 21, 3-Ethoxy-5-{6-[2-(8-methoxy-3,4-dihydro-2H-benzo[b][1,4]dioxepin-7-yl)-ethylamino]-pyrimidin-4-yl}-thiophene-2-carboxylic acid]"
295 nM,212 nM,–,325 nM,–,"CCOc1cc(-c2cc(NCCc3ccc4cc[nH]c4c3)ncn2)ccc1OCC(=O)O [Ex 194, (2-Ethoxy-4-{6-[2-(1H-indol-6-yl)-ethylamino]-pyrimidin-4-yl}-phenoxy)-acetic acid]"
26 nM,2 nM,–,1 nM,–,"CCOc1cc(-c2cc(NCCc3c(OC)cc4ccccc4c3F)ncn2)sc1C(=O)O [Ex 3, 3-Ethoxy-5-{6-[2-(1-fluoro-3-methoxy-naphthalen-2-yl)-ethylamino]-pyrimidin-4-yl}-thiophene-2-carboxylic acid]"
486 nM,129 nM,–,202 nM,–,"CSc1cc(-c2cc(NCCc3ccc4ccccc4c3)ncn2)ccc1C(=O)O [Ex 219, 2-Methylsulfanyl-4-[6-(2-naphthalen-2-yl-ethylamino)-pyrimidin-4-yl]-benzoic acid]"
304 nM,35 nM,–,33 nM,–,"CCOc1cc(-c2cc(NCCc3ccc4c(ccn4C)c3)ncn2)sc1C(=O)O [Ex 65, 3-Ethoxy-5-{6-[2-(1-methyl-1H-indol-5-yl)-ethylamino]-pyrimidin-4-yl}-thiophene-2-carboxylic acid]"

# The remaining lines, values behind:
Structure (SMILES),IC50 (EP2),IC50 (EP4),IC50 (PTGER2 (EP2)),IC50 (PTGER4 (EP4)),IC50 (EP4; BT549 cells)
"CCCOc1cc(-c2cc(NCCc3ccc4ccccc4c3C)ncn2)ccc1C(=O)O [Ex 183, 4-{6-[2-(1-Methyl-naphthalen-2-yl)-ethylamino]-pyrimidin-4-yl}-2-propoxy-benzoic acid]",67 nM,178 nM,115 nM,223 nM,–
"CCOc1cc(-c2cc(NCCc3cc4ccccc4cc3C)ncn2)ccc1C(=O)O [Ex 240, 2-Ethoxy-4-{6-[2-(3-methyl-naphthalen-2-yl)-ethylamino]-pyrimidin-4-yl}-benzoic acid]",816 nM,346 nM,–,598 nM,–
CSc1cc(-c2cc(NCCc3ccc4ccsc4c3)ncn2)ccc1C(=O)O [Ex 176],293 nM,185 nM,–,179 nM,–
"CCOc1cc(-c2cc(NCCc3c(F)cc4ncccc4c3F)ncn2)sc1-c1noc(=O)[nH]1 [Example 346, 3-(5-{6-[2-(5,7-Difluoro-quinolin-6-yl)-ethylamino]-pyrimidin-4-yl}-3-ethoxy-thiophen-2-yl)-[1,2,4]oxadiazol-5(4H)-one]",282 nM,110 nM,–,57 nM,–
"O=C(O)c1ccc(-c2cc(NCCc3ccc4c(c3)CCCO4)ncn2)cc1OC1CCC1 [Ex 266, 4-[6-(2-Chroman-6-yl-ethylamino)-pyrimidin-4-yl]-2-cyclobutoxy-benzoic acid]",537 nM,428 nM,–,444 nM,–
CCSc1cc(-c2cc(NCCc3c(F)cc4ncccc4c3F)ncn2)ccc1C(=O)O [Ex 153],340 nM,146 nM,–,757 nM,–
"O=C(O)c1ccc(-c2cc(NCCc3ccc4c(c3)CCC4)ncn2)cc1OC1CCC1 [Ex 206, 2-Cyclobutoxy-4-[6-(2-indan-5-yl-ethylamino)-pyrimidin-4-yl]-benzoic acid]",572 nM,248 nM,–,304 nM,–
CSc1cc(-c2cc(NCCc3ccc4c(c3)OCCO4)ncn2)ccc1C(=O)O [Ex 310],564 nM,683 nM,–,937 nM,–
"CCOc1cc(-c2cc(NCCc3ccc4ccccc4c3N)ncn2)sc1C(=O)O [Ex 71, 5-{6-[2-(1-Amino-naphthalen-2-yl)-ethylamino]-pyrimidin-4-yl}-3-ethoxy-thiophene-2-carboxylic acid]",301 nM,39 nM,–,24 nM,–
Cc1csc2ccc(CCNc3cc(-c4ccc(C(=O)O)c(OC5CCC5)c4)ncn3)cc12 [Ex 306],274 nM,654 nM,–,610 nM,–
CSc1cc(-c2cc(NCCc3ccc4[nH]ccc4c3)ncn2)ccc1C(=O)O [Ex 319],354 nM,559 nM,–,1180 nM,–
"CCOc1cc(-c2cc(NCCc3ccc4ccccc4c3)ncn2)sc1-c1noc(=O)[nH]1 [Example 345, 3-{3-Ethoxy-5-[6-(2-naphthalen-2-yl-ethylamino)-pyrimidin-4-yl]-thiophen-2-yl}-[1,2,4]oxadiazol-5(4H)-one]",683 nM,30 nM,–,6 nM,–
"CSc1cc2c(cc1CCNc1cc(-c3ccc(C(=O)O)c(OC4CCC4)c3)ncn1)OCCO2 [Ex 70, 2-Cyclobutoxy-4-{6-[2-(7-methylsulfanyl-2,3-dihydro-benzo[1,4]dioxin-6-yl)-ethylamino]-pyrimidin-4-yl}-benzoic acid]",441 nM,38 nM,–,209 nM,–
CCOc1cc(-c2cc(NCCc3ccc4ccccc4c3C)ncn2)ccc1OCC(=O)O [Ex 166],297 nM,165 nM,–,49 nM,–
CCOc1cc(-c2cc(NCCc3ccc4sccc4c3)ncn2)ccc1C(C)C(=O)O (stereo not drawn) [Ex 161],524 nM,130 nM,–,199 nM,–
"CN1CCCc2cc(CCNc3cc(-c4cc(C(F)(F)F)c(C(=O)O)s4)ncn3)c(F)cc21 [Ex 72, 5-{6-[2-(7-Fluoro-1-methyl-1,2,3,4-tetrahydro-quinolin-6-yl)-ethylamino]-pyrimidin-4-yl}-3-trifluoromethyl-thiophene-2-carboxylic acid]",892 nM,39 nM,–,37 nM,–
